From ChEMBL document CHEMBL3046419, “Nematicidal activity of anion transport blockers against Meloidogyne incognita, Caenorhabditis elegans and Heterorhabditis bacteriophora” (Pest Manag Sci, 2008) come the findings set out here.

Converted amounts (≈) assume the structure as drawn. The source made the active and inactive calls. The calls are words filed in the database; no cut-off is given here. A value given as a limit tells only on which side of the number the result lay.

The test system of assay [1] is Heterorhabditis bacteriophora. Put plainly: Nematicidal activity against J3 juveniles of Heterorhabditis bacteriophora assessed as mortality at 200 mg/l after 168 hr relative to control. In kind it is functional.
Assay [2] concerns Caenorhabditis elegans. Briefly: Inhibition of […] in Caenorhabditis elegans N2 Bristol assessed as increase in pharyngeal musle contraction frequency at 50 mg/l after 6 hr relative to control. In kind it is functional, organism-based.
Assay [3] has as its system Caenorhabditis elegans. Briefly: Inhibition of […] in Caenorhabditis elegans N2 Bristol assessed as increase in pharyngeal musle contraction frequency at 50 mg/l after 1 hr relative to control. In kind it is functional.
For assay [4], the system named is Meloidogyne incognita. Put plainly: Ovicidal activity against Meloidogyne incognita (root-knot nematode) eggs after 168 hr. The format is functional, organism-based.
Assay [5] concerns Meloidogyne incognita. Briefly: Ovicidal activity against Meloidogyne incognita (root-knot nematode) eggs after 120 hr. In kind it is functional, organism-based.
The test system of assay [6] is Meloidogyne incognita. Put plainly: Ovicidal activity against Meloidogyne incognita (root-knot nematode) eggs assessed as inhibition of egg hatching at 40 mg/l after 120 hr relative to control. In kind it is functional.
The subject of assay [7] is Meloidogyne incognita. Briefly: Ovicidal activity against Meloidogyne incognita (root-knot nematode) eggs assessed as inhibition of egg hatching at 40 mg/l after 24 to 72 hr relative to control. The format is functional. To be noted: read-out: mortality.
In assay [8] the test system is Meloidogyne incognita. Put plainly: Nematicidal activity against J2 juveniles of Meloidogyne incognita (root-knot nematode) after 168 hr relative to control. In kind it is functional.
Assay [9] relates to Meloidogyne incognita. Put plainly: Nematicidal activity against J2 juveniles of Meloidogyne incognita (root-knot nematode) after 120 hr relative to control. In kind it is functional.
For assay [10], the system named is Meloidogyne incognita. Briefly: Nematicidal activity against J2 juveniles of Meloidogyne incognita (root-knot nematode) after 72 hr relative to control. The format is functional.
The test system of assay [11] is Meloidogyne incognita. Put plainly: Nematicidal activity against J2 juveniles of Meloidogyne incognita (root-knot nematode) assessed as mortality at 40 mg/l after 48 hr relative to control. The format is functional.
Assay [12] deals with Caenorhabditis elegans. Put plainly: Nematicidal activity against adult Caenorhabditis elegans N2 Bristol after 168 hr. The format is functional.
Assay [13] deals with Caenorhabditis elegans. Put plainly: Nematicidal activity against adult Caenorhabditis elegans N2 Bristol after 120 hr. In kind it is functional.
The subject of assay [14] is Caenorhabditis elegans. Briefly: Nematicidal activity against adult Caenorhabditis elegans N2 Bristol after 48 hr. In kind it is functional.
Assay [15] concerns Caenorhabditis elegans. Put plainly: Nematicidal activity against adult Caenorhabditis elegans N2 Bristol after 72 hr. The format is functional.
Assay [16] relates to Caenorhabditis elegans. Put plainly: Nematicidal activity against adult Caenorhabditis elegans N2 Bristol assessed as mortality at 40 mg/l after 24 hr relative to control. In kind it is functional.
The subject of assay [17] is Caenorhabditis elegans. Put plainly: Nematicidal activity against adult Caenorhabditis elegans N2 Bristol assessed as mortality at 40 mg/l after 120 hr relative to control. The format is functional.
Assay [18] relates to Caenorhabditis elegans. Briefly: Nematicidal activity against adult Caenorhabditis elegans N2 Bristol assessed as mortality at 40 mg/l after 48 hr relative to control. The format is functional.
Assay [19] concerns Bursaphelenchus xylophilus. Put plainly: Nematicidal activity against Bursaphelenchus xylophilus assessed as mortality at 1 mg/l after 48 hr relative to control. In kind it is functional.
Assay [20] has as its target T1, Chloride channel protein clh-3 (Caenorhabditis elegans) (UniProt Q9BMK9).
T1 sequence (whole entry): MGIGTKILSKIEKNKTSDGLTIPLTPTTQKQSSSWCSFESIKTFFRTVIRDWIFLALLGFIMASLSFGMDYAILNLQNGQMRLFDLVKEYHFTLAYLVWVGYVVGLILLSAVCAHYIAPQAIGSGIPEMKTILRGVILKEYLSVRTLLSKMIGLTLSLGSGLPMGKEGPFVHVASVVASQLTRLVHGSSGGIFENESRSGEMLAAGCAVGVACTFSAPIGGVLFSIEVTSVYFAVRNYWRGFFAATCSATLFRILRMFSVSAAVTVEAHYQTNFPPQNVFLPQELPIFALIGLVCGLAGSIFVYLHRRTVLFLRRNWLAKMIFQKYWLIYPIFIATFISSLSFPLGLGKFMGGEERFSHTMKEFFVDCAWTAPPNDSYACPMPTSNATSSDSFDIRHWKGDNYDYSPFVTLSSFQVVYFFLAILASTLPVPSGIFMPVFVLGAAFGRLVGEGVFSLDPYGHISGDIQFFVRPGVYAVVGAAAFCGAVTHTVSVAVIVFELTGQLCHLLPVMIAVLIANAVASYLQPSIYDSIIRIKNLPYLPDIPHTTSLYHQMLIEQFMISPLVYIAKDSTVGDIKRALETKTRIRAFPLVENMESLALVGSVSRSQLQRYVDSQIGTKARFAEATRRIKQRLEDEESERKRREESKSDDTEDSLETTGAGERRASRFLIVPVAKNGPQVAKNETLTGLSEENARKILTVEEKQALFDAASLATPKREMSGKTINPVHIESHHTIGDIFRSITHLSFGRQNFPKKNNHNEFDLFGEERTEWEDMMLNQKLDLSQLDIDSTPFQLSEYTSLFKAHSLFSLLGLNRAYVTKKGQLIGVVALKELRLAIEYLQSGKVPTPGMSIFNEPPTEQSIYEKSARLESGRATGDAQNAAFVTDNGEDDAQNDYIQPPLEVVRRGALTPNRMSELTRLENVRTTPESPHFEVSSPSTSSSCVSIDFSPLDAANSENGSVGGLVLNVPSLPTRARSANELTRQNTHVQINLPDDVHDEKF
To be noted: 100 uM.
Description: Inhibition of CECLC-3 in Caenorhabditis elegans oocyte membrane at 100 uM

Assay [21] deals with Heterorhabditis bacteriophora. Briefly: Nematicidal activity against J3 juveniles of Heterorhabditis bacteriophora assessed as mortality at 200 mg/l after 24 hr relative to control. The format is functional.
Assay [22] has as its system Heterorhabditis bacteriophora. Briefly: Nematicidal activity against J3 juveniles of Heterorhabditis bacteriophora assessed as mortality at < 200 mg/l. The format is functional, organism-based.
The subject of assay [23] is Caenorhabditis elegans. Put plainly: Nematicidal activity against adult Caenorhabditis elegans after 24 hr. In kind it is functional.
Assay [24] concerns Caenorhabditis elegans. Put plainly: Nematicidal activity against J4 juvenile of Caenorhabditis elegans after 24 hr. In kind it is functional.

With `O=S(=O)(O)c1cc(N=C=S)ccc1/C=C/c1ccc(N=C=S)cc1S(=O)(=O)O`, the mortality at 200 µg/mL in assay [1] is under 15%. Further, in the assay on Caenorhabditis elegans [2], the inhibition result is “inactive”. Moreover, the inhibition at 50 µg/mL in the assay with Caenorhabditis elegans [3] worked out at 20%. Further, the EC50 with Meloidogyne incognita [4] stood at 23.4 µg/mL (≈ 51.6 µM); in the assay with Meloidogyne incognita [5] it was 29.1 µg/mL (≈ 64.1 µM). In addition, the inhibition at 40 µg/mL in the assay on Meloidogyne incognita [6] was found to be 50%. Also, the inhibition of egg hatching at 40 µg/mL in the assay on Meloidogyne incognita [7] was under 50%. The LC50 in the assay on Meloidogyne incognita [8] was found to be 4.46 µg/mL (≈ 9.81 µM); in the assay on Meloidogyne incognita [9], 7.48 µg/mL (≈ 16.5 µM); in the assay with Meloidogyne incognita [10] it was 15.4 µg/mL (≈ 33.8 µM); with Caenorhabditis elegans [12], 3.14 µg/mL (≈ 6.91 µM); with Caenorhabditis elegans [13], 4.46 µg/mL (≈ 9.81 µM); in the assay with Caenorhabditis elegans [14] it was 29.6 µg/mL (≈ 65.2 µM). Besides, the LC50 with Caenorhabditis elegans [15] was determined as 8.9 µg/mL (≈ 19.6 µM). Besides, the mortality at 40 µg/mL in the assay with Meloidogyne incognita [11] is under 50%; with Caenorhabditis elegans [16] it was under 50%; in the assay on Caenorhabditis elegans [17], 100%; in the assay with Caenorhabditis elegans [18], over 50%.
For `COc1ccc(/C=C/c2ccccc2O)cc1` [2-hydroxy-4'-methoxystilbene], the mortality at 1 µg/mL in assay [19] was found to be 95%.
Take `O=C(O)c1cc([N+](=O)[O-])ccc1NCCCc1ccccc1` [5-NITRO-2-PHENYLPROPYLAMINOBENZOIC ACID [NPPB]]: the mortality at 200 µg/mL in assay [1] was under 15%. Besides, the inhibition result with Caenorhabditis elegans [2] was “inactive”. For the same molecule, the inhibition at 50 µg/mL with Caenorhabditis elegans [3] is 20%. Besides, the EC50 worked out at 34.1 µg/mL (≈ 113 µM) with Meloidogyne incognita [4] and 46.5 µg/mL (≈ 155 µM) in the assay with Meloidogyne incognita [5]. For the same molecule, in the assay on Meloidogyne incognita [6], the inhibition at 40 µg/mL was 50%. The inhibition of egg hatching at 40 µg/mL in the assay on Meloidogyne incognita [7] was under 50%. In addition, the LC50 amounted to 5.27 µg/mL (≈ 17.5 µM) with Meloidogyne incognita [8]; 8.09 µg/mL (≈ 26.9 µM) with Meloidogyne incognita [9]; 20.1 µg/mL (≈ 66.9 µM) in the assay on Meloidogyne incognita [10]; 4.56 µg/mL (≈ 15.2 µM) in the assay on Caenorhabditis elegans [12]; 7.44 µg/mL (≈ 24.8 µM) in the assay with Caenorhabditis elegans [13]; 38.4 µg/mL (≈ 128 µM) in the assay on Caenorhabditis elegans [14]. This molecule also came in with an LC50 with Caenorhabditis elegans [15] of 15.9 µg/mL (≈ 52.8 µM). Moreover, the mortality at 40 µg/mL with Meloidogyne incognita [11] was under 50%; with Caenorhabditis elegans [16] it was under 50%; in the assay on Caenorhabditis elegans [17], 100%; in the assay with Caenorhabditis elegans [18], over 50%. In [20], this molecule returned an inhibition of 90%.
Take `O=C(O)c1c2ccccc2cc2ccccc12` [ANTHRACENE-9-CARBOXYLIC ACID]: the mortality at 200 µg/mL in assay [1] was under 15%. The inhibition result in the assay on Caenorhabditis elegans [2] was “inactive”. Moreover, the inhibition at 50 µg/mL in the assay on Caenorhabditis elegans [3] was 20%. In the assay on Meloidogyne incognita [4], this molecule returned a concentration for a half-maximal effect (EC50) of 48 µg/mL (≈ 216 µM). Moreover, the inhibition at 40 µg/mL in the assay with Meloidogyne incognita [6] is under 50%. In addition, in the assay with Meloidogyne incognita [7], the inhibition of egg hatching at 40 µg/mL is under 50%. Besides, the 50% lethal concentration (LC50) is 6.27 µg/mL (≈ 28.2 µM) in the assay on Meloidogyne incognita [8]; 11.2 µg/mL (≈ 50.6 µM) in the assay on Meloidogyne incognita [9]; 26.8 µg/mL (≈ 120 µM) in the assay with Meloidogyne incognita [10]; 5.35 µg/mL (≈ 24.1 µM) with Caenorhabditis elegans [12]; 8.44 µg/mL (≈ 38 µM) with Caenorhabditis elegans [13]; 42.7 µg/mL (≈ 192 µM) in the assay with Caenorhabditis elegans [14]. Moreover, in the assay on Caenorhabditis elegans [15], the median lethal concentration (LC50) is 17.8 µg/mL (≈ 80 µM). For the same molecule, the mortality at 40 µg/mL in the assay with Meloidogyne incognita [11] was under 50%; with Caenorhabditis elegans [16], under 50%; in the assay on Caenorhabditis elegans [17], 100%; in the assay on Caenorhabditis elegans [18], 45%.
As to `CCOP(=S)(OCC)Oc1nc(Cl)c(Cl)cc1Cl` [CHLORPYRIFOS], the mortality at 200 µg/mL in assay [21] is 100%; in [1], under 15%. The result in [22] was Active.
With `C[C@@]1(C2CCCC2)Cc2cc(OCCC(=O)O)c(Cl)c(Cl)c2C1=O` [INDANYLOXYACETIC ACID], the inhibition entry with Caenorhabditis elegans [2] was “inactive”.
Take `CC(C)c1c(O)cc(/C=C/c2ccccc2)cc1O` [TAPINAROF]: the LC50 in the assay with Caenorhabditis elegans [23] and in the assay with Caenorhabditis elegans [24] was 50 µg/mL (≈ 197 µM) each time.
